Bridges are numbered along the chain shown (N, C = ends). Where no end group is shown, it is not given here.
Columns and labels:
hypertensive SHR rats = assay: Arterial blood pressure in hypertensive SHR rats after IP MMP-2 inhibitor; assay type: in vivo, rat; conditions: 5 mg IP
[1] = tested on: Male 10-week-old Lewis/ssncr rats; assay: Blood pressure measurements in rats after intravenous peptide injection; assay type: in vivo, rat
Experimental: Blood pressure measurements. Male 10-week-old Lewis/ssncr rats (SAIC, Frederic, Md.) were anesthetized with 3% halothane, intubated, and maintained with 1% halothane in 70% nitrous oxide and 30% oxygen (VMS Anesthesia Machine, Matrx, Medical Inc., Orchard Park, N.Y.) at 82 strokes/minute. Rectal temperature was monitored through the experiment. A PE50 catheter was placed on the right femoral artery and arterial blood pressure was recorded through a P23XL transducer (Grass Instruments, Quincy, Mass.). Peptides were injected into the right femoral vein through another catheter. To confirm that changes in blood pressure were not an artifact of the anesthesia, the experiments were repeated in conscious animals. After catheters were placed under anesthesia, the animals were allowed to recover for 24-48 hours before taking blood pressure measurements. All procedures were performed under a protocol approved by the National Institutes of Health.

[2] = target: T1, AM receptor in Rat2 cells (Rattus norvegicus, UniProt Q63118); assay: Measurement of cAMP response in Rat2 cells (radioimmunoassay); assay type: cell-based; conditions: for intracellular elevation of cAMP: peptides applied 5 minutes, versus PBS control
T1 construct: Rat2 is a fibroblast cell line that contains a well characterized AM receptor; host or cells: Rat2 rat fibroblast cell line
Experimental: Measurement of cAMP response. The rat fibroblast cell line Rat2 was obtained from the American Tissue Culture Collection (Manassas, Va.) and kept in RPMI-1640 medium supplemented with 10% fetal calf serum (Invitrogen). Accumulation of intracellular cAMP was measured as described (Pío et al., J. Biol. Chem. 276:12292-12300, 2001). Cells were seeded in 24-well plates at 2×10^4 cells/well and incubated at 37° C. in 5% CO2 until they reached 80% confluency. Before the assay, cells were incubated for 15 minutes in TIS medium (RPMI-1640 plus 10 μg/ml transferrin, 10 μg/ml insulin, and 50 nM sodium selenite) containing 1% bovine serum albumin, 1 mg/ml bacitracin, and 100 μM isobutylmethylxanthine. Peptides were applied in the same medium for 5 minutes at the indicated concentrations in a volume of 250 μl. The reaction was terminated by adding an equal volume of ice-cold ethanol. cAMP contents were measured using the Biotrac cAMP radioimmunoassay (Amersham).
To determine if AM peptide fragments elicit their hypotensive and hypertensive effects via the AM receptor, their cAMP response in fibroblasts was examined.

blood pressure = conditions: Kitamura et al. 2001; cited from earlier work
anesthetized rats = conditions: Watanabe et al. 1996; cited from earlier work
Human recombinant MMP-2 = target: T2, Human recombinant MMP-2 (Homo sapiens, UniProt P08253); assay: Digestion reactions with MMP-2 (gel, HPLC); assay type: biochemical; conditions: low salt collagenase buffer, absence of factor H
T2 construct: made in house
T2 sequence (P08253 110-660): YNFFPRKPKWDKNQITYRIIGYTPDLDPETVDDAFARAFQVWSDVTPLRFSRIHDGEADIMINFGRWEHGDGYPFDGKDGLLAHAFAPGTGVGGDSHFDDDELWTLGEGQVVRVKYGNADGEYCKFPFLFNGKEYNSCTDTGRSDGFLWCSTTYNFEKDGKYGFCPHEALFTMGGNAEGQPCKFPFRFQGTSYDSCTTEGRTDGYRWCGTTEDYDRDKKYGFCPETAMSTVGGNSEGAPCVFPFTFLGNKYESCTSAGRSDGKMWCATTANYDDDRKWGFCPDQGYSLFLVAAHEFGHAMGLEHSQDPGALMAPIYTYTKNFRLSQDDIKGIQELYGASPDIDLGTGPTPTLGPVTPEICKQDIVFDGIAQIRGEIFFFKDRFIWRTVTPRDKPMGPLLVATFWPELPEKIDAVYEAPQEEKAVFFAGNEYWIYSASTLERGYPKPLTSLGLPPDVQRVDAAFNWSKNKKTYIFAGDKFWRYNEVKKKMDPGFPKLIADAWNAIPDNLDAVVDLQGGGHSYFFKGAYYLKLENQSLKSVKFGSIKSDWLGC
Experimental: (§1) Digestion reactions. Synthetic AM (240 μg/reaction) was exposed to 11.5 μg MMP-2 or MMP-9 in low salt collagenase buffer (50 mM Tris, pH 7.5, 50 mM NaCl, 0.02% Brig) for different periods of time in the presence or absence of 6 mg factor H. These amounts correspond to an approximate molar ratio of 1:250:250 (enzyme:AM:factor H). The reaction was stopped with EDTA. Digestion reactions were run in 16% Tricine gels (Invitrogen, Carlsbad, Calif.) under reducing conditions and stained with Gel Code Blue Stain Reagent (Pierce, Rockford, Ill.).
High performance liquid chromatography (HPLC). Digestion reactions were also loaded into an analytical reverse phase R2H 5×100 mm HPLC column (Poros, Applied Biosystems, Foster City, Calif.) in a 10-60% acetonitrile gradient over 10 minutes and the protein peaks eluted from the column were detected with a wavelength of 230 nm.

Human recombinant MMP-9 = target: T3, Human recombinant MMP-9 (Homo sapiens, UniProt P14780); assay: Digestion reactions with MMP-9 (gel); assay type: biochemical; conditions: low salt collagenase buffer
T3 construct: made in house
Experimental: as §1

[3] = anesthetized rats, injection into femoral vein

T1 sequence (Q63118 23-464 limits assumed): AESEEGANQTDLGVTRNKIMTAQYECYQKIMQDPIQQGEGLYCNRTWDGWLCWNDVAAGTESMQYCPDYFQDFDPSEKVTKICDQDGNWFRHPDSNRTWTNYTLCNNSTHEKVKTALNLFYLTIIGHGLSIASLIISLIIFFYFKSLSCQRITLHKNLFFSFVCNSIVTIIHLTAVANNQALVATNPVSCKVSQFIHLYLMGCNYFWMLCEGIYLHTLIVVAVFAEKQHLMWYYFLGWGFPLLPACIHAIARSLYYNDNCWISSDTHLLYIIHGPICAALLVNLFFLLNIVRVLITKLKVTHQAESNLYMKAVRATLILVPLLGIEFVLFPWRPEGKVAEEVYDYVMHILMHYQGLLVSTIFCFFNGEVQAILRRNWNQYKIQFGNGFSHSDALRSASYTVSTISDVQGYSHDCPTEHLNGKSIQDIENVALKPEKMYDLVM
T1 sequence (Q9JHJ1 46-182 partner): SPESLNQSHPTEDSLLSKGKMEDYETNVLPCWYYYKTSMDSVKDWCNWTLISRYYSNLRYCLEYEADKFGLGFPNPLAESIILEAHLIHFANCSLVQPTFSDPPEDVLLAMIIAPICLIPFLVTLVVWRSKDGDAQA
T3 sequence (P14780 94-707): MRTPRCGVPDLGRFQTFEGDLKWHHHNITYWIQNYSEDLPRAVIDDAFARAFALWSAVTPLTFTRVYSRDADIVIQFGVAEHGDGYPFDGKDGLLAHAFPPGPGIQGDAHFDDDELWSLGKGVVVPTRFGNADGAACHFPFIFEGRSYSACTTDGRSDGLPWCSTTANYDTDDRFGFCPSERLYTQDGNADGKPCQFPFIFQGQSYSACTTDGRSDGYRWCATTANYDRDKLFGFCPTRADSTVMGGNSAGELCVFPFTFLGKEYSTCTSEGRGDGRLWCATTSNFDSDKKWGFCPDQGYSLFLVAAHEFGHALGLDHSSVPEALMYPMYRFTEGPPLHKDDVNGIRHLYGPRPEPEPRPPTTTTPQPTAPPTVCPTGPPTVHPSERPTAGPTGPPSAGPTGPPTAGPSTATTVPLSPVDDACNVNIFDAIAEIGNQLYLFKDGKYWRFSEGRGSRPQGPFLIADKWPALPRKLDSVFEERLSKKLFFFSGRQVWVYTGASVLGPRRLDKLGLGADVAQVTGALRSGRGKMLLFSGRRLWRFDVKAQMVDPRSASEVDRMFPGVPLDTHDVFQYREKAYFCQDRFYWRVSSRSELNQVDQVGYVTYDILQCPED

CNC(=O)[C@H](Cc1ccccc1)NC(=O)[C@H](CC(C)C)[C@H](CSc1cccs1)C(=O)NO [BB-94, Batimastat]
drop in blood pressure (hypertensive SHR rats): about 80 mm of Hg | time after injection at which blood pressure dropped (hypertensive SHR rats): 20 min | time blood pressure remained at the reduced level (hypertensive SHR rats): at least 2.5 hours

AM(8-52): AM fragment generated by MMP-2 digestion; maintains intramolecular ring structure and α-amide; synthesized (FQGLRSFGCRFGTCTVQKLAHQIYQFTDKDKDNVAPRSKISPQGY-NH2; disulfide 9-14 (inferred); UniProt P35318 102-146, looked up, fragment)
effect on blood pressure [1, 3]: induced hypotension | intracellular elevation of cAMP [2]: equal to the one induced by the intact AM molecule

AM(11-22): peptide consisting of amino acids 11-22 of adrenomedullin (LRSFGCRFGTCT; PEPTIDE (1)..(12) Active peptide AM(11-22), corresponding to positions 11-22 of adrenomedullin (SEQ ID NO 3) and positions 105-116 of preproadrenomedullin (SEQ ID NO 2).; listed as Homo sapiens)
vasopressor effect over basal levels ([1]; anesthetized rats, injection into femoral vein, n=5): 71±24 mm Hg | duration of activity ([1]; vasoconstrictor activity in rats): on the order of hours | effect on cAMP response elicited by intact AM (1-52) ([2]; different (increasing) concentrations of peptide added with AM): did not affect the response

AM(11-26): AM fragment purified from bovine adrenal medulla (Kitamura et al.) (LRSFGCRFGTCTVQKL; ends and bridges not checked; cysteine pairing not given here; UniProt P35318 105-120, looked up, fragment)
duration of elevation in blood pressure (blood pressure): about 70 seconds | vasopressor activity (blood pressure): induced vasopressor activity

AM(11-28): AM fragment generated by MMP-2 digestion; has the loop but not the carboxy end; synthesized (LRSFGCRFGTCTVQKLAH; disulfide 6-11 (inferred); UniProt P35318 105-122, looked up, fragment)
effect on blood pressure [1, 3]: do not have any discernible effect

AM(11-52): AM fragment generated by MMP-2 digestion; maintains intramolecular ring structure and α-amide; synthesized (LRSFGCRFGTCTVQKLAHQIYQFTDKDKDNVAPRSKISPQGY-NH2; disulfide 6-11 (inferred); UniProt P35318 105-146, looked up, fragment)
effect on blood pressure [1, 3]: induced hypotension | intracellular elevation of cAMP [2]: equal to the one induced by the intact AM molecule

AM(23-52): AM fragment generated by MMP-2 digestion; retains only the terminal amide; synthesized (VQKLAHQIYQFTDKDKDNVAPRSKISPQGY-NH2; UniProt P35318 117-146, looked up, fragment)
effect on blood pressure [1, 3]: do not have any discernible effect

AM(29-52): AM fragment generated by MMP-2 digestion; retains only the terminal amide; synthesized (QIYQFTDKDKDNVAPRSKISPQGY-NH2; UniProt P35318 123-146, looked up, fragment)
effect on blood pressure [1, 3]: do not have any discernible effect

AM-(1-21)-NH2: synthetic N-terminal AM fragment (Watanabe et al.) (YRQSMNNFQGLRSFGCRFGTC-NH2; ends and bridges not checked; UniProt P35318 95-115, looked up, fragment)
vasoactivity (vasodepressor or vasopressor) (anesthetized rats): vasopressor activity

AM-(1-25)-NH2: synthetic N-terminal AM fragment (Watanabe et al.) (YRQSMNNFQGLRSFGCRFGTCTVQK-NH2; ends and bridges not checked; UniProt P35318 95-119, looked up, fragment)
vasoactivity (vasodepressor or vasopressor) (anesthetized rats): vasodepressor activity

AM-(1-25)-OH: synthetic N-terminal AM fragment (Watanabe et al.) (YRQSMNNFQGLRSFGCRFGTCTVQK-OH; ends and bridges not checked; UniProt P35318 95-119, looked up, fragment)
vasoactivity (vasodepressor or vasopressor) (anesthetized rats): vasopressor activity

AM-(1-31)-NH2: synthetic N-terminal AM fragment (Watanabe et al.) (YRQSMNNFQGLRSFGCRFGTCTVQKLAHQIY-NH2; ends and bridges not checked; UniProt P35318 95-125, looked up, fragment)
vasoactivity (vasodepressor or vasopressor) (anesthetized rats): vasopressor activity

acetyl-AM-(16-21)-NH2: synthetic N-terminal AM fragment (Watanabe et al.) (Ac-CRFGTC-NH2; ends and bridges not checked; UniProt P35318 110-115, looked up, fragment)
vasoactivity (vasodepressor or vasopressor) (anesthetized rats): vasopressor activity

acetyl-AM-(16-36)-NH2: synthetic N-terminal AM fragment (Watanabe et al.) (Ac-CRFGTCTVQKLAHQIYQFTDK-NH2; ends and bridges not checked; UniProt P35318 110-130, looked up, fragment)
vasoactivity (vasodepressor or vasopressor) (anesthetized rats): vasopressor activity

adrenomedullin [AM]
reduction of blood pressure (hypotension) ([1]; anesthetized rats, injection into femoral vein, n=5, untreated systolic 125±10 mm Hg): 55±5 mm Hg | intracellular elevation of cAMP [2]: significant elevation of cAMP | degradation by MMP-2 (Human recombinant MMP-2): rapidly cleaves | degradation by MMP-9 (Human recombinant MMP-9): resistance
